Publication PMC3469158, “Hesperidin-3′-O-Methylether Is More Potent than Hesperidin in Phosphodiesterase Inhibition and Suppression of Ovalbumin-Induced Airway Hyperresponsiveness” (Evidence-based Complementary and Alternative Medicine : eCAM, 2012)
Read-outs that look alike come from different tables or passages of the source.

Experiments:
[1] = test system: high-affinity rolipram-binding sites (HARBSs), PDE4H; assay: Displacement of [3H]-rolipram from high-affinity rolipram-binding sites of brain cell membranes (PDE4H); parameters: species or system guinea pig; details: for EC50: 2 nM [3H]-rolipram, guinea pig brain cell membranes, read-out: EC50 (PDE4H) for displacing [3H]-rolipram binding; for PDE4H/PDE4L ratio: therapeutic ratio, EC50 (PDE4H) / IC50 (PDE4L)
Description: When the above-mentioned guinea pigs were sacrificed, the whole brains were removed and homogenized with a glass/Teflon homogenizer (Glas-Col, Terre Haute, IN, USA) in 10 volumes of cold medium (pH 6.5) containing 20 mM Bis-Tris, 2 mM benzamidine, 2 mM EDTA, 50 mM sodium chloride, 0.1 mM PMSF, and 1 mM dithiothreitol. At 4°C, the homogenate was centrifuged at 170 g for 5 min to remove connective tissues and blood vessels. The suspended homogenate was then recentrifuged at 40,000 g for 30 min to separate the cytosolic and particulate portions. The particulate portion was resuspended in a suspension at a concentration of 400 mg/mL (wet weight/volume), after washing three times with homogenizing buffer. The particulate portion mainly consisted of cell membranes. […] Briefly, the reaction buffer consisted of 50 mM Tris-HCl and 5 mM MgCl2 (pH 7.5). […] After 1 h, the reaction was terminated by moving the reaction vessel into crushed ice. Then the reaction mixture was transferred onto Whatman GF/B glass-fiber filters, which were soaked in a 0.3% polyethyleneimine solution in a mini-funnel.

PDE4 [2] = assay: PDE4 activity in homogenate of guinea pig lungs or hearts (PDE4L); type: biochemical; details: guinea pig lung or heart homogenate; read-out: IC50 for PDE4 inhibition (PDE4L value)
Description: (§1) Activities of PDE1∼5 in the homogenate of guinea pig lungs or hearts were measured by a two-step procedure according to the previous method, using cAMP with [^3 H]-cAMP or cGMP with [^3 H]-cGMP as substrates. The enzyme preparation (25 μL) was incubated for 30 min at 37°C in a total assay volume of 100 μL containing 50 mM Tris-HCl (pH 7.4), 3 mM MgCl2, 1 mM dithiothreitol, 0.05% BSA, and 1 μM cAMP with 0.2 μCi [^3 H]-cAMP as a substrate alone or in the presence of 0.1 unit calmodulin with 10 μM CaCl2 or 5 μM cGMP, and 1 μM cGMP with 0.2 μCi [^3 H]-cGMP as another substrate alone or in the presence of 0.1 unit calmodulin with 10 μM CaCl2. […] The reagents and homogenate were mixed on ice, and the reaction was initiated by transferring the mixture to a water bath at 37°C. Following a 30 min incubation, the reaction was stopped by transferring the reaction vessel to a bath of boiling water for 3 min. After cooling on ice, 20 μL of a 1 mg/mL solution of Crotalus atrox snake venom was added to the reaction mixture, and the mixture was incubated at 37°C for 10 min. Unreacted [^3 H]-cAMP or [^3 H]-cGMP was removed by the addition of 500 μL of a 1-in-1 Tris-HCl (40 mM) buffer suspension of Dowex resin (1 × 2-400) with incubation on ice for 30 min. Each tube was then centrifuged at 3700 g for 2 min, and 100 μL of the supernatant was removed for liquid scintillation counting.

[3] = test system: duration of xylazine/ketamine-induced anesthesia; assay: Xylazine/ketamine-induced anesthesia (surrogate of emesis); type: in vivo, BALB/c mice; details: 0.25 h before anesthesia, mice
Description: According to a previously described method and modified by us, hesperidin, hesperidin-3′-O-methylether (each 300 μmol/kg, subcutaneously (s.c.)), or Ro 20-1724 (0.01∼1 μmol/kg, s.c.), a reference drug, was, respectively, injected into 8∼12-week-old female BALB/c mice 1, 1 or 0.25 h prior to an i.p. injection of xylazine (10 mg/kg)/ketamine (70 mg/kg). The vehicle (control) for hesperidin, hesperidin-3′-O-methylether, or Ro 20-1724 was a mixture of DMSO : PEG 400 : saline (1 : 1 : 8, v/v). After the loss of the righting reflex (i.e., when a mouse remained on its back and no longer spontaneously righted itself to a prone position), the duration of anesthesia was measured until its return as the endpoint.

PDE1 = PDE1 activity in homogenate of guinea pig lungs or hearts ([3H]-cAMP/[3H]-cGMP two-step procedure); type: biochemical; details: guinea pig lung or heart homogenate; read-out: IC50 for PDE1 inhibition
Description: as §1

PDE3 = PDE3 activity in homogenate of guinea pig lungs or hearts; type: biochemical; details: guinea pig lung or heart homogenate; read-out: IC50 for PDE3 inhibition
Description: as §1

PDE4 [4] = details: read-out: IC50 for PDE4 inhibition; cited from earlier work
[5] = test system: xylazine/ketamine-induced anesthesia; details: administered s.c.; cited from earlier work
[6] = test system: IgE and IgG2a in serum and BALF; assay: Total and ovalbumin-specific IgE and total IgG2a in serum and BALF (ELISA); type: in vivo, BABL/c mice
Description: (§2) According to the schedule (Figure 2), ten female BABL/c mice in each group were sensitized by an intraperitoneal (i.p.) injection of 20 μg of ovalbumin emulsified in 2.25 mg of an aluminum hydroxide gel, prepared from aluminum sulfate hexadecahydrate, in a total volume of 100 μL on days 0 and 14. Mice were challenged via the airway using 1% ovalbumin in saline for 30 min on days 28, 29, and 30 by ultrasonic nebulization. After the last ovalbumin challenge, AHR was assessed on day 32 (48 h after 1% ovalbumin provocation) in each group. Each group of mice was orally (p.o.) administered the vehicle (control), 30∼100 μmol/kg of hesperidin or 10∼100 μmol/kg of hesperidin-3′-O-methylether 2 h before and 6 and 24 h after ovalbumin provocation. For comparison, sham-treated mice were challenged with saline instead of 1% ovalbumin (nonchallenged). The vehicle, a mixture of DMSO : PEG 400 : saline (1 : 1 : 8, v/v), hesperidin, or hesperidin-3′-O-methylether was administered (p.o.) at a volume of 0.01 mL/g of body weight. AHR was assessed by barometric plethysmography using a whole-body plethysmograph (WBP) and analyzed using software of Life Science Suite P3 Analysis Modules (Gould, LDS Test and Measurement LLC, Valley View, OH, USA) in unrestrained animals. Mice were placed into the main chamber of the WBP, and the baseline enhanced pause (P enh) value was determined. Then mice were first nebulized with phosphate-buffered saline (PBS), and subsequently with increasing doses (6.25∼50 mg/mL) of methacholine for 3 min for each nebulization, followed by readings of breathing parameters for 3 min after each nebulization to determine P enh values. Twenty-four hours after P enh determination, these mice were anesthetized with pentobarbital (50 mg/kg, i.p.), and the lungs were lavaged via a tracheal tube with PBS (1 × 1.0 mL, 37°C). After lavage, blood was collected from the jugular vein and allowed to sit so that it would coagulate. The collected bronchoalveolar lavage fluid (BALF) and coagulated blood were respectively centrifuged at 630 g for 7 min and at 3700 g for 10 min at 4°C. After centrifugation, the BALF and serum supernatants were stored at −20°C until determinations of cytokines, including interleukin (IL)-2, IL-4, IL-5, tumor necrosis factor (TNF)-α, and interferon (IFN)-γ by flow cytometric methods using mouse Th1/Th2 cytokine CBA kits, and of a total immunoglobulin (Ig)E and IgG2a using ELISA kits (Pharmingen, San Diego, CA, USA) according to the respective recommendations of the manufacturers. Ovalbumin-specific IgE was measured as described previously. Wells were coated with 100 μL of ovalbumin (20 μg/mL) instead of the capture antibody. Levels are expressed in arbitrary units, where 1 arbitrary unit equals the optical density of the sample divided by the optical density of unchallenged mouse serum or BALF (standard). The BALF pellet was resuspended in ACK lysing buffer (1.658 g NH4Cl, 0.2 g KHCO3, and […] EDTA in 200 mL of water) to lyse the residual erythrocytes in each sample. The number of inflammatory cells was counted using a hemocytometer (Hausser Scientific, Horsham, PA, USA). Cytospin slides were stained and cell differentials were determined in a blinded fashion by counting at least 100 cells under light microscopy. All undetectable data (<1 pg/mL) of cytokines were taken as 0.5 pg/mL.

[7] = test system: airway hyperresponsiveness in ovalbumin-sensitized and challenged mice; assay: Ovalbumin-induced airway hyperresponsiveness, Penh by whole-body plethysmography; type: in vivo, BABL/c mice; details: for Penh value at the baseline / Penh value with PBS nebulization: sensitized and challenged mice
Description: as §2

[8] = test system: inflammatory cells in BALF; assay: Inflammatory cell counts in BALF of sensitized and challenged mice; type: in vivo, BABL/c mice
Description: as §2

cytokines in BALF = assay: Cytokine levels in BALF of sensitized and challenged mice (flow cytometric CBA); type: in vivo, BABL/c mice
Description: as §2

CCCCOc1cc(CC2CNC(=O)N2)ccc1OC (stereo not drawn) [Ro 20-1724, 4-(3-butoxy-4-methoxybenzyl)-2-imidazolidinone, reference compound]
EC50 [1]: 0.105 ± 0.0131 µM
PDE4H/PDE4L ratio [1]: 0.03
IC50 (PDE4 [2]): 3.5 ± 0.2 µM
duration of xylazine/ketamine-induced anesthesia ([3]; 0.01∼1 μmol/kg s.c.): dose-dependently shortened
duration of xylazine/ketamine-induced anesthesia ([3]; 0.03∼1 μmol/kg s.c.): significantly shortened

CCOC(=O)C1=C[C@]2(CC)CCCN3CCc4c(n1c1ccccc41)[C@@H]32 [vinpocetine, reference compound]
IC50 (PDE1): 30.8 ± 1.1 µM

Cc1[nH]c(=O)c(C#N)cc1-c1ccncc1 [milrinone, reference compound]
IC50 (PDE3): 2.7 ± 0.8 µM

COc1cc(O)c2c(c1)O[C@H](c1ccc(OC)c(OC)c1)CC2=O [hesperetin-7,3′-O-dimethylether]
IC50 (PDE4 [4]): 3 µM

COc1ccc([C@@H]2CC(=O)c3c(O)cc(O)cc3O2)cc1O [hesperetin]
xylazine/ketamine-induced anesthesia [5]: not influence
IC50 (PDE4 [4]): 28.2 µM

COc1ccc(C2CC(=O)c3c(O)cc(O[C@@H]4O[C@H](CO[C@@H]5O[C@@H](C)[C@H](O)[C@@H](O)[C@H]5O)[C@@H](O)[C@H](O)[C@H]4O)cc3O2)cc1OC (stereo partly drawn) [hesperidin-3′-O-methylether]
EC50 [1]: 218 ± 32.1 µM
PDE4H/PDE4L ratio [1]: 15.7
level of total IgG2a in the serum ([6]; 30 μmol/kg p.o.): enhanced
total and OVA-specific IgE levels in the serum and BALF ([6]; 30 μmol/kg p.o.): significantly suppressed
levels of total and ovalbumin-specific IgE in the serum and BALF ([6]; 30∼100 μmol/kg p.o.): dose-dependently and significantly suppressed
reduction of total IgG2a level in the serum ([6]; 30∼100 μmol/kg p.o.): dose-dependently and significantly reversed
Penh value at the baseline ([7]; 10 μmol/kg p.o.): 2.41 ± 0.05
Penh value with PBS nebulization ([7]; 10 μmol/kg p.o.): 2.41 ± 0.06
suppression of AHR ([7]; 30 μmol/kg p.o.): significantly suppressed AHR
Penh value at the baseline ([7]; 30 μmol/kg p.o.): 2.38 ± 0.06
Penh value with PBS nebulization ([7]; 30 μmol/kg p.o.): 2.42 ± 0.05
Penh value at the baseline ([7]; 100 μmol/kg p.o.): 2.41 ± 0.05
Penh value with PBS nebulization ([7]; 100 μmol/kg p.o.): 2.39 ± 0.06
enhancement of Penh values induced by 25 and 50 mg/mL methacholine ([7]; 30∼100 μmol/kg p.o., vs control (vehicle)): significantly attenuated
numbers of all types of inflammatory cells in BALF ([8]; 10 μmol/kg p.o.): unaffected
numbers of all inflammatory cells examined in BALF ([8]; 30 μmol/kg p.o.): significantly suppressed
increases in numbers of total inflammatory cells, macrophages, lymphocytes, neutrophils, and eosinophils in BALF ([8]; 30∼100 μmol/kg p.o.): significantly suppressed
IC50 (PDE4 [2]): 13.9 ± 2.4 µM
IC50 (PDE1): 13.6 ± 2.3 µM
IC50 (PDE3): 13.2 ± 0.9 µM
level of IFN-γ in BALF compared to the control (cytokines in BALF; 100 μmol/kg p.o.): significantly enhanced
increases in levels of IL-2, IL-4, TNF-α in BALF (cytokines in BALF; 10∼100 μmol/kg p.o.): significantly suppressed
increase in level of IL-5 in BALF (cytokines in BALF; 30∼100 μmol/kg p.o.): significantly suppressed
